Data on two substances can be found in patent publication US8961927B2, “Agents for magnetic imaging method” (Bracco Imaging S.p.A., priority 2002, dated 2015).

Common to all, as to type: cell-based
In one series the test system is human hepatoma cells HTC. Kind of series: Differential uptake in rat hepatocytes and human hepatoma cells HTC, time course. The conditions noted are these: substrate 1.3 mM, 37° C. in EBSS. The method, then: This experiment has been carried out as follows:
Rat hepatocytes were cultured in M199 medium supplemented with 2 mg/ml bovine serum albumin (BSA), 3.6 mg/ml Hepes, 100 U/ml penicillin, 100 U/μg streptomycin, and 10 nmol/insulin; HTC cells were cultured in RPMI 1640 medium supplemented with 10% foetal bovine serum, 100 U/ml penicillin and 100 U/μg streptomycin.
The uptake experiments were performed in 5 ml EBSS, Earl's Balanced Salt Solution, (CaCl2 0.266 g/l; KCl 0.4 g/l; NaCl 6.8 g/l; glucose 1 g/l; MgSO4 0.204 g/l; NaH2PO4 0.144 g/l; NaHCO3 2.2 g/l).
[…] The substrate concentration was for both cell lines 1.3 mM.

Series [1] concerns panel of cancer cell lines. Kind of series: Uptake in a panel of cancer cell lines compared with healthy hepatocytes, compound of Example 3. The conditions noted are these: substrate 5.1 mM; after 2 hours; FIG. 3. The method, then: The substrate concentration was 5.1 mM and the uptake was measured after 2 hours from the administration of the test compound.
The subject of series [2] is human hepatoma cells HepG2. Kind of series: Differential uptake in hepatocytes and hepatoma cell lines HepG2, EBSS without glucose, compound of Example 3. The conditions noted are these: substrate 5.1 mM, time course, FIG. 2. As for the experimental part:
The cells were cultured as in Example 12 above. The uptake experiments were performed in 5 ml EBSS without glucose to avoid competition between this compound and the test compound.
The substrate concentration was 5.1 mM and a time course analysis was done.

On to “Gadolinium Complex of [4-(1,6,10-triazaundecan)-phenyl-aminocarbonylmethyl]-1,4,7,10-tetraazacyclododecan-4,7,10-triacetic acid [Example 11]”, for which the entries for the “uptake by the human hepatoma cells HTC relative to the one in hepatocytes” value with human hepatoma cells HTC (after 0.5 hour), in the series on human hepatoma cells HTC (after six hours) and in the series with human hepatoma cells HTC (at 2 hours) were “⅓”, “more than 4 times” and “more than 3 times”, respectively.
Turning to “Gadolinium Complex of 3,6,9-triaza-3,6,9-tricarboxymethylundecanoic acid bis-glucopyranosylamide [Example 3]”, the “uptake of Gd in cancer cell lines compared with healthy hepatocytes” value in series [1] is listed as “increased in all the cancer cell lines”. Also, in series [2], the “uptake in human hepatoma cells HepG2 compared with hepatocyte” value is given as “higher uptake”.
